Values after ≈ are worked out from the molar mass of the structure shown. Read-outs that look alike come from different tables or passages of the source.
Tests used:
[1] = tested on: Haemophilus influenzae C.L.; experiment: MIC, standard agar-dilution assay, Haemophilus influenzae C.L.; type: cell-based
Experimental: (§1) Certain of the derivatives are active against some gram-negative bacteria, such as Pasteurella species. The MIC's in Table II were determined by standard agar-dilution assays.

[2] = tested on: Staphylococcus aureus S13E; experiment: MIC, standard agar-dilution assay, Staphylococcus aureus S13E; type: cell-based
Experimental: as §1

[3] = tested on: Klebsiella pneumoniae KAE; experiment: MIC, standard agar-dilution assay, Klebsiella pneumoniae KAE; type: cell-based
Experimental: as §1

[4] = tested on: Streptococcus pneumoniae Park I; experiment: MIC, standard agar-dilution assay, Streptococcus pneumoniae Park I; type: cell-based
Experimental: as §1

[5] = tested on: Staphylococcus aureus V41; experiment: MIC, standard agar-dilution assay, Staphylococcus aureus V41; type: cell-based
Experimental: as §1

[6] = tested on: Haemophilus influenzae 76; experiment: MIC, standard agar-dilution assay, Haemophilus influenzae 76; type: cell-based
Experimental: as §1

[7] = tested on: Streptococcus pneumoniae Group D X9960; experiment: MIC, standard agar-dilution assay, Streptococcus pneumoniae Group D X9960; type: cell-based
Experimental: as §1

Escherichia coli TEM = experiment: MIC, standard agar-dilution assay, Escherichia coli TEM; type: cell-based
Experimental: as §1

Escherichia coli EC14 = experiment: MIC, standard agar-dilution assay, Escherichia coli EC14; type: cell-based
Experimental: as §1

[8] = tested on: Staphylococcus epidermidis EPI2; experiment: MIC, standard agar-dilution assay, Staphylococcus epidermidis EPI2; type: cell-based
Experimental: as §1

[9] = tested on: Staphylococcus aureus X400; experiment: MIC, standard agar-dilution assay, Staphylococcus aureus X400; type: cell-based
Experimental: as §1

[10] = tested on: Staphylococcus epidermidis EPI1; experiment: MIC, standard agar-dilution assay, Staphylococcus epidermidis EPI1; type: cell-based
Experimental: as §1

[11] = tested on: Streptococcus pyogenes C203; experiment: MIC, standard agar-dilution assay, Streptococcus pyogenes C203; type: cell-based
Experimental: as §1

[12] = tested on: Klebsiella pneumoniae X26; experiment: MIC, standard agar-dilution assay, Klebsiella pneumoniae X26; type: cell-based
Experimental: as §1

[13] = tested on: Staphylococcus aureus X1.1; experiment: MIC, standard agar-dilution assay, Staphylococcus aureus X1.1; type: cell-based
Experimental: as §1

[14] = tested on: Streptococcus pyogenes C203; experiment: protection of mice experimentally infected with S. pyogenes C203; type: in vivo; details: mg/kg × 2, doses given 1 and 4 hours postinfection
Experimental: Some of the derivatives of this invention have shown in vivo antimicrobial activity against experimentally-induced infections in laboratory animals. When two doses of test compound were administered to mice experimentally infected with S. pyogenes C203, the activity observed was measured as an ED50 value [effective dose in mg/kg to protect 50% of the test animals: see Warren Wick, et al., J. Bacteriol. 81, 233-235 (1961)].
^a mg/kg × 2; doses given 1 and 4 hours postinfection

[15] = tested on: Streptococcus pneumoniae Group D X66; experiment: MIC, standard agar-dilution assay, Streptococcus pneumoniae Group D X66; type: cell-based
Experimental: as §1

[16] = Haemophilus influenzae C.L., Ampicillin-sensitive strain, read-out: MIC
[17] = Streptococcus pneumoniae Park I, read-out: MIC
[18] = Staphylococcus aureus V41, Penicillin-resistant strain, read-out: MIC
[19] = Haemophilus influenzae 76, Ampicillin-resistant strain, read-out: MIC
[20] = Streptococcus pneumoniae Group D X9960, read-out: MIC
[21] = Staphylococcus aureus X400, Methicillin-resistant strain, read-out: MIC
[22] = Klebsiella pneumoniae KAE, read-out: MIC
[23] = Escherichia coli TEM, read-out: MIC

SMILES	MIC [1, 16] [µg/mL]	MIC [2] [µg/mL]	MIC [4, 17] [µg/mL]	MIC [6, 19] [µg/mL]	MIC [7, 20] [µg/mL]	MIC (Escherichia coli TEM; Escherichia coli) [µg/mL]	MIC (Escherichia coli EC14) [µg/mL]	MIC [8] [µg/mL]	MIC [9, 21] [µg/mL]	MIC ([10]; read-out: MIC) [µg/mL]	MIC ([11]; read-out: MIC) [µg/mL]	MIC ([13]; read-out: MIC) [µg/mL]	ED50 ([14]; C203, Oral) [mg/kg]	ED50 ([14]; C203, sc, Subcutaneous) [mg/kg]	MIC [3, 22] [µg/mL]	MIC ([5]; Staphylococcus aureus, V41) [µg/mL]	MIC ([15]; Streptococcus pneumoniae) [µg/mL]	MIC (Escherichia coli EC14; read-out: MIC) [µg/mL]	MIC ([12]; read-out: MIC) [µg/mL]	MIC [11] [µg/mL]	further results
CCC1OC(=O)CC(O)C(C)C(OC2OC(C)C(O)C(N(C)C)C2O)C(CCN2CCOCC2)CC(C)C(=O)C=CC(C)=CC1CO (stereo not shown) [Compound 14, 20-DH-DO-20-Morpholino-OMT]	16 (≈ 23.9 µM)	4 (≈ 5.98 µM)	0.5 (≈ 0.748 µM)	4 (≈ 5.98 µM)	4 (≈ 5.98 µM)	64 (≈ 95.7 µM)	128 (≈ 191 µM)	1 (≈ 1.5 µM)	8 (≈ 12 µM)	2 (≈ 2.99 µM)	1 (≈ 1.5 µM)	4 (≈ 5.98 µM)	> 100	> 10							MIC ([3]; Klebsiella pneumoniae KAE, symbol for not active at 128 mcg/ml, read-out: MIC): > 128 µg/mL; MIC [5, 18]: 4 µg/mL (≈ 5.98 µM); MIC [12]: 4 µg/mL (≈ 5.98 µM); pKa (Titration pKa; Titration pKa value (first)): 6.5; pKa (Titration pKa; Titration pKa value (second)): 8.4
CCC1OC(=O)CC(O)C(C)C(OC2OC(C)C(O)C(N(C)C)C2O)C(CCN2CCCCCCC2)CC(C)C(=O)C=CC(C)=CC1CN1CCCCCCC1 (stereo not shown) [Compound 15, 20-DH-DO-23-Deoxy-20,23-di(octahydroazocin-1-yl)-OMT]	0.5 (≈ 0.633 µM)	0.5 (≈ 0.633 µM)	0.125 (≈ 0.158 µM)	1 (≈ 1.27 µM)	1 (≈ 1.27 µM)			0.25 (≈ 0.316 µM)		0.5 (≈ 0.633 µM)	0.125 (≈ 0.158 µM)	0.5 (≈ 0.633 µM)	> 50	> 10	8 (≈ 10.1 µM)	0.5 (≈ 0.633 µM)	0.5 (≈ 0.633 µM)	4 (≈ 5.06 µM)	2 (≈ 2.53 µM)		MIC (Escherichia coli TEM; [23]): 2 µg/mL (≈ 2.53 µM); MIC ([9]; Staphylococcus aureus, X400): 0.5 µg/mL (≈ 0.633 µM); pKa (Titration pKa; Titration pKa value (first)): 6.9; pKa (Titration pKa; Titration pKa value (second)): 8.05; pKa (Titration pKa; Titration pKa value (third), third printed value): 8.9
CCC1OC(=O)CC(O)C(C)C(OC2OC(C)C(O)C(N(C)C)C2O)C(CCN2CCCCCC2)CC(C)C(=O)C=CC(C)=CC1C (stereo not shown) [Compound 23]	16 (≈ 24.1 µM)	4 (≈ 6.02 µM)		16 (≈ 24.1 µM)	16 (≈ 24.1 µM)	8 (≈ 12 µM)	128 (≈ 193 µM)	1 (≈ 1.5 µM)	8 (≈ 12 µM)	2 (≈ 3.01 µM)		4 (≈ 6.02 µM)	> 100	> 10	128 (≈ 193 µM)				2 (≈ 3.01 µM)	0.5 (≈ 0.752 µM)	MIC [5, 18]: 4 µg/mL (≈ 6.02 µM); MIC ([15]; Streptococcus pneumoniae Group D X66, read-out: MIC): 8 µg/mL (≈ 12 µM)
CCC1OC(=O)CC(O)C(C)C(OC2OC(C)C(O)C(N(C)C)C2O)C(CCN2CCCCCC2)CC(C)C(=O)C=CC(C)=CC1CO (stereo not shown) [Compound 5]		4 (≈ 5.87 µM)				16 (≈ 23.5 µM)	128 (≈ 188 µM)	2 (≈ 2.94 µM)	8 (≈ 11.7 µM)	2 (≈ 2.94 µM)			> 100	7.8	128 (≈ 188 µM)	4 (≈ 5.87 µM)	16 (≈ 23.5 µM)		4 (≈ 5.87 µM)	0.5 (≈ 0.734 µM)	MIC ([1]; Haemophilus influenzae): 16 µg/mL (≈ 23.5 µM); MIC ([6]; Haemophilus influenzae, 76): 16 µg/mL (≈ 23.5 µM); MIC ([7]; Streptococcus pneumoniae): 16 µg/mL (≈ 23.5 µM); MIC [13]: 4 µg/mL (≈ 5.87 µM)
CCC1OC(=O)CC(O)C(C)C(OC2OC(C)C(O)C(N(C)C)C2O)C(CCN2CC3CCC(CC3)C2)CC(C)C(=O)C=CC(C)=CC1CO (stereo not shown) [Compound 13, 20-DH-DO-20-[3-Azabicyclo(3.2.2)-nonan-3-yl]-OMT]	4 (≈ 5.66 µM)	1 (≈ 1.41 µM)		2 (≈ 2.83 µM)	8 (≈ 11.3 µM)			0.25 (≈ 0.354 µM)	1 (≈ 1.41 µM)		2 (≈ 2.83 µM)		87	5.9		1 (≈ 1.41 µM)	4 (≈ 5.66 µM)	32 (≈ 45.3 µM)	2 (≈ 2.83 µM)		MIC ([3]; Klebsiella pneumoniae): 64 µg/mL (≈ 90.5 µM); MIC ([4]; Streptococcus pneumoniae): 0.25 µg/mL (≈ 0.354 µM); MIC (Escherichia coli TEM; [23]): 8 µg/mL (≈ 11.3 µM); pKa (physchem; Titration pKa value (first)): 7.7; pKa (physchem; Titration pKa value (second)): 9.3; MIC [10]: 1 µg/mL (≈ 1.41 µM); MIC [13]: 1 µg/mL (≈ 1.41 µM)
CCC1OC(=O)CC(O)C(C)C(OC2OC(C)C(O)C(N(C)C)C2O)C(CCN2CCC(c3ccccc3)CC2)CC(C)C(=O)C=CC(C)=CC1CO (stereo not shown) [Compound 4, 20-DH-DO-20-(4-Phenylpiperidin-1-yl)-OMT]		2 (≈ 2.69 µM)	0.25 (≈ 0.336 µM)		4 (≈ 5.38 µM)	8 (≈ 10.8 µM)		0.5 (≈ 0.673 µM)		1 (≈ 1.35 µM)			> 100	> 10		2 (≈ 2.69 µM)	2 (≈ 2.69 µM)	32 (≈ 43.1 µM)		2 (≈ 2.69 µM)	MIC ([1]; Haemophilus influenzae): 8 µg/mL (≈ 10.8 µM); MIC ([3]; Klebsiella pneumoniae): 64 µg/mL (≈ 86.1 µM); MIC ([6]; Haemophilus influenzae, 76): 8 µg/mL (≈ 10.8 µM); MIC ([9]; Staphylococcus aureus, X400): 2 µg/mL (≈ 2.69 µM); MIC [12]: 2 µg/mL (≈ 2.69 µM); MIC [13]: 2 µg/mL (≈ 2.69 µM)
